Reference: patent publication US11130741B2 (Bioimics AB, priority 2016, dated 2021)
≈ marks a conversion by molar mass, not a printed value. Counter-ions that a name gives are not always drawn. Like-named read-outs stand apart in the source and are kept apart here.

Columns and labels:
[1] = system: Staphylococcus aureus subsp. aureus (ATCC29213); assay: MIC, broth microdilution (CLSI), Staphylococcus aureus subsp. aureus ATCC29213; format: cell-based; details: ATCC29213, Table 15, read-out: S. aureus ("wound") (MIC)
[2] = system: Escherichia coli (ATCC25922); assay: MIC, broth microdilution (CLSI), Escherichia coli ATCC25922
[3] = ATCC25922, read-out: E. coli MIC, Table 15, NI = No inhibition
[4] = ATCC25922, read-out: E. coli MIC

SMILES: Cl.Cl.NCCN1CCC(Nc2cc(C(F)(F)F)cc3c2Nc2ccc(Br)cc2S3)CC1 [compound 282, N-(1-(2-aminoethyl)piperidin-4-yl)-7-bromo-3-(trifluoromethyl)-10H-phenothiazin-1-amine hydrochloride]
- MIC [1]: 4 µg/mL
- MIC [2, 3]: 8 µg/mL

SMILES: Cl.NCCNCCCNc1cc(C(F)(F)F)cc2c1Nc1ccc(N3CC4(CCC4)C3)cc1S2 [compound 347, N1-(7-(2-azaspiro[3.3]heptan-2-yl)-3-(trifluoromethyl)-10H-phenothiazin-1-yl)-N3-(2-aminoethyl) propane-1,3-diamine hydrochloride]
- MIC [1]: 4 µg/mL
- MIC [2, 3]: 8 µg/mL

SMILES: Cl.Cl.Cl.NCCNCC(=O)CNc1cc(C(F)(F)F)cc2c1Nc1ccc(N3CCCC3)cc1S2 [compound 317, 1-((2-aminoethyl)amino)-3-((7-(pyrrolidin-1-yl)-3-(trifluoromethyl)-10H-phenothiazin-1-yl)amino) propan-2-one hydrochloride]
- MIC [1]: 64 µg/mL
- MIC [2, 3]: 128 µg/mL

SMILES: Cl.Cl.NCCN1CCC(Nc2cc(C(=O)NNc3ccc(F)cc3)cc3c2Nc2ccccc2S3)CC1 [compound 280, 1-((1-(2-aminoethyl)piperidin-4-yl)amino)-N′-(4-fluorophenyl)-10H-phenothiazine-3-carbohydrazide hydrochloride]
- MIC [1]: 16 µg/mL
- MIC [2, 3]: 64 µg/mL

SMILES: Cc1cc(NC2CCN(CCN)CC2)c2c(c1)Sc1cc(Br)ccc1N2.Cl [compound 329, N-(1-(2-aminoethyl)piperidin-4-yl)-7-bromo-3-methyl-10H-phenothiazin-1-amine hydrochloride]
- MIC [1]: 16 µg/mL
- MIC [2, 3]: 64 µg/mL

SMILES: NCCCN1c2ccc(N3CCNCC3)cc2Sc2cc(C(F)(F)F)ccc21 [compound 265, 3-(3-(piperazin-1-yl)-7-(trifluoromethyl)-10H-phenothiazin-10-yl)propan-1-amine hydrochloride]
- MIC [1]: 16 µg/mL
- MIC [2, 4]: 64 µg/mL

SMILES: NCCN1CCN(c2ccc3c(c2)Sc2cc(C(F)(F)F)cc(NC4CCNCC4)c2N3)CC1 [compound 269, 7-(4-(2-aminoethyl)piperazin-1-yl)-N-(piperidin-4-yl)-3-(trifluoromethyl)-10H-phenothiazin-1-amine hydrochloride]
- MIC [1]: 16 µg/mL
- MIC [2, 4]: 64 µg/mL

SMILES: Cl.NCCCNc1cc(C(F)(F)F)cc2c1Nc1ccc(Br)cc1S2 [compound 333, N1-(7-bromo-3-(trifluoromethyl)-10H-phenothiazin-1-yl)propane-1,3-diamine hydrochloride]
- MIC [1]: 8 µg/mL
- MIC [2, 3]: 16 µg/mL

SMILES: CC1CC(C)N(c2ccc3c(c2)Sc2cc(C(F)(F)F)cc(NC4CCN(CCN)CC4)c2N3)C1.Cl.Cl (centres unmarked) [compound 341, N-(1-(2-aminoethyl)piperidin-4-yl)-7-(2,4-dimethyl-pyrrolidin-1-yl)-3-(trifluoromethyl)-10H-phenothiazin-1-amine hydrochloride]
- MIC [1]: 1 µg/mL
- MIC [2, 3]: 8 µg/mL

SMILES: Cl.Cl.Cl.NCCCN1c2ccc(N3CCCC3)cc2Sc2cc(N3CCN(CCN)CC3)ccc21 [compound 291, 3-(3-(4-(2-aminoethyl)piperazin-1-yl)-7-(pyrrolidin-1-yl)-10H-phenothiazin-10-yl)propan-1-amine hydrochloride]
- MIC [1]: 16 µg/mL
- MIC [2, 3]: 128 µg/mL

SMILES: FC(F)(F)c1cc(NC2CCNCC2)c2c(c1)Sc1cc(N3CCNCC3)ccc1N2 [compound 270, 7-(piperazin-1-yl)-N-(piperidin-4-yl)-3-(trifluoromethyl)-10H-phenothiazin-1-amine hydrochloride]
- MIC [1]: 32 µg/mL
- MIC [2, 4]: 128 µg/mL

SMILES: NCCNCCCNc1cc(C(F)(F)F)cc2c1Nc1ccc(C3CCCC3)cc1S2 [compound 353, N1-(2-aminoethyl)-N3-(7-cyclopentyl-3-(trifluoromethyl)-10H-phenothiazin-1-yl) propane-1,3-diamine hydrochloride]
- MIC [1]: 2 µg/mL
- MIC [2, 4]: 8 µg/mL

SMILES: Cl.Cl.NCCN1CCC(Nc2cc(C(F)(F)F)cc3c2Nc2ccc(N4CCC(N)CC4)cc2S3)CC1 [compound 272, N-(1-(2-aminoethyl)piperidin-4-yl)-7-(4-aminopiperidin-1-yl)-3-(trifluoromethyl)-10H-phenothiazin-1-amine]
- MIC [1]: 16 µg/mL
- MIC [2, 3]: 32 µg/mL

SMILES: Cl.Cl.NCCN1CCC(Nc2cc(C(F)(F)F)cc3c2Nc2ccc(C4CCCC4)cc2S3)CC1 [compound 354, N-(1-(2-aminoethyl)piperidin-4-yl)-7-cyclopentyl-3-(trifluoromethyl)-10H-phenothiazin-1-amine hydrochloride]
- MIC [1]: 1 µg/mL
- MIC [2, 3]: 8 µg/mL

SMILES: NCCCN1c2ccc(C(=O)O)cc2Sc2cc(-c3cc4ccccc4[nH]3)ccc21 [compound 262, 10-(3-aminopropyl)-7-(1H-indol-2-yl)-10H-phenothiazine-3-carboxylic acid trifluoro acetic acid]
- MIC [1]: 32 µg/mL (≈ 77 µM)
- MIC [2, 4]: > 128 µg/mL

SMILES: Cl.Cl.NCCN1CCC(Nc2cc(C(N)=O)cc3c2Nc2ccccc2S3)CC1 [compound 287, 1-((1-(2-aminoethyl)piperidin-4-yl)amino)-10H-phenothiazine-3-carboxamide hydrochloride]
- MIC [1]: 128 µg/mL
- MIC [2, 4]: > 128 µg/mL

SMILES: CC1CC(C)CN(c2ccc3c(c2)Nc2c(NC4CCN(CCN)CC4)cc(C(F)(F)F)cc2S3)C1.Cl (centres unmarked) [compound 357, N-(1-(2-aminoethyl)piperidin-4-yl)-8-(3,5-dimethyl-piperidin-1-yl)-3-(trifluoromethyl)-10H-phenothiazin-1-amine hydrochloride]
- MIC [1]: 16 µg/mL
- MIC [2, 3]: 64 µg/mL

SMILES: Cl.NC1CCCC(CNc2cc(C(F)(F)F)cc3c2Nc2ccc(Br)cc2S3)C1 (centres unmarked) [compound 343, N-((3-aminocyclohexyl)methyl)-7-bromo-3-(trifluoromethyl)-10H-phenothiazin-1-amine hydrochloride]
- MIC [1]: 16 µg/mL
- MIC [2, 3]: 64 µg/mL

SMILES: Cl.FC(F)(F)c1cc(NC2CCN(CCN3CCNCC3)CC2)c2c(c1)Sc1cc(N3CCCC3)ccc1N2 [compound 330, N-(1-(2-(piperazin-1-yl)ethyl)piperidin-4-yl)-7-(pyrrolidin-1-yl)-3-(trifluoromethyl)-10H-phenothiazin-1-amine hydrochloride]
- MIC [1]: 128 µg/mL
- MIC [2, 4]: > 128 µg/mL

SMILES: Cl.NCCNCCCNc1cc(C(F)(F)F)cc2c1Nc1ccc(N3CCCC3)cc1S2 [compound 345, N1-(2-aminoethyl)-N3-(7-(pyrrolidin-1-yl)-3-(trifluoromethyl)-10H-phenothiazin-1-yl)propane-1,3-diamine hydrochloride]
- MIC [1]: 4 µg/mL
- MIC [2, 3]: 32 µg/mL

SMILES: Cl.NCCN1CCC(Nc2cc(C(F)(F)F)cc3c2Nc2ccc(N4CCC5CCCC54)cc2S3)CC1 (centres unmarked) [compound 340, N-(1-(2-aminoethyl)piperidin-4-yl)-7-(hexahydro-cyclopenta[b]pyrrol-1(2H)-yl)-3-(trifluoromethyl)-10H-phenothiazin-1-amine hydrochloride]
- MIC [1]: 4 µg/mL
- MIC [2, 3]: 16 µg/mL

SMILES: CC1CCCN(c2ccc3c(c2)Sc2cc(C(F)(F)F)cc(NC(=O)C4CCCC(N)C4)c2N3)C1.Cl.Cl (centres unmarked) [compound 313, 3-amino-N-(7-(3-methyl-piperidin-1-yl)-3-(trifluoromethyl)-10H-phenothiazin-1-yl)cyclohexane-1-carboxamide hydrochloride]
- MIC [1]: 16 µg/mL
- MIC [2, 3]: > 128 µg/mL

SMILES: Cl.Cl.NCCN1CCC(Nc2cc(C(F)(F)F)cc3c2Nc2ccc(N4CCc5ccccc54)cc2S3)CC1 [compound 310, N-(1-(2-aminoethyl)piperidin-4-yl)-7-(indolin-1-yl)-3-(trifluoromethyl)-10H-phenothiazin-1-amine hydrochloride]
- MIC [1]: 8 µg/mL
- MIC [2, 3]: 128 µg/mL

SMILES: Cl.NCCNCCCNc1cc(C(F)(F)F)cc2c1Nc1cc(Br)ccc1S2 [compound 355, N1-(2-aminoethyl)-N3-(8-bromo-3-(trifluoromethyl)-10H-phenothiazin-1-yl)propane-1,3-diamine hydrochloride]
- MIC [1]: 4 µg/mL
- MIC [2, 3]: 8 µg/mL

SMILES: FC(F)(F)c1cc(NC2CCNCC2)c2c(c1)Sc1cccnc1N2 [compound 264, N-(piperidin-4-yl)-7-(trifluoromethyl)-10H-benzo[b] pyrido[2,3-e] [1,4]thiazin-9-amine]
- MIC [1]: 8 µg/mL (≈ 21.8 µM)
- MIC [2, 3]: 16 µg/mL (≈ 43.7 µM)

SMILES: CC1CC(C)CN(c2ccc3c(c2)Sc2cc(C(F)(F)F)cc(NCCCNCCN)c2N3)C1.Cl (centres unmarked) [compound 346, N1-(2-aminoethyl)-N3-(7-(3,5-dimethylpiperidin-1-yl)-3-(trifluoromethyl)-10H-phenothiazin-1-yl) propane-1,3-diamine hydrochloride]
- MIC [1]: 4 µg/mL
- MIC [2, 3]: 16 µg/mL

SMILES: Cl.Cl.NCCN1CCC(Nc2cc(C(F)(F)F)cc3c2Nc2ccc(N4CCCCC4)cc2S3)CC1 [compound 289, N-(1-(2-aminoethyl)piperidin-4-yl)-7-(piperidin-1-yl)-3-(trifluoromethyl)-10H-phenothiazin-1-amine hydrochloride]
- MIC [1]: 4 µg/mL
- MIC [2, 3]: 8 µg/mL

SMILES: Cl.Cl.N#Cc1ccc2c(c1)Sc1cc(C(F)(F)F)cc(NC(=O)CCNCCN)c1N2 [compound 304, 3-((2-aminoethyl)amino)-N-(7-cyano-3-(trifluoromethyl)-10H-phenothiazin-1-yl)propanamide hydrochloride]
- MIC [1]: 16 µg/mL
- MIC [2, 3]: 32 µg/mL

SMILES: CN(C)CCNCC(=O)CNc1cc(C(F)(F)F)cc2c1Nc1ccc(N3CCCC3)cc1S2.Cl.Cl [compound 323, 1-((2-(dimethyl-amino)ethyl)amino)-3-((7-(pyrrolidin-1-yl)-3-(trifluoromethyl)-10H-phenothiazin-1-yl)amino) propan-2-one hydrochloride]
- MIC [1]: 128 µg/mL
- MIC [2, 4]: > 128 µg/mL

SMILES: CCN(C)c1ccc2c(c1)Sc1cc(C(F)(F)F)cc(NCCCNCCN)c1N2.Cl.Cl [compound 348, N1-(3-((2-aminoethyl)amino)propyl)-N7-ethyl-N7-methyl-3-(trifluoromethyl)-10H-phenothiazine-1,7-diamine hydrochloride]
- MIC [1]: 4 µg/mL
- MIC [2, 3]: 32 µg/mL

SMILES: Cl.NCCNCCCNc1cc(C(F)(F)F)cc2c1Nc1ccc(C3=CCCC3)cc1S2 [compound 358, N1-(2-aminoethyl)-N3-(7-(cyclopent-1-en-1-yl)-3-(trifluoromethyl)-10H-phenothiazin-1-yl) propane-1,3-diaminehydrochloride]
- MIC [1]: 16 µg/mL
- MIC [2, 3]: 16 µg/mL
